Test results taken from US12622886B2, “Compositions comprising amino acids for prevention and/or treatment of cancer” (Professional Dietetics S.p.A., priority 2020, dated 2026).

Tested on: MCF7 breast cancer cells
Experiment: MCF7 proliferation (acid phosphatase assay and Trypan blue exclusion)
Assay type: cell-based, human
Conditions: 1% α5 for 48 h and 1 μM DOX for 16 h
Experimental: MCF-7 cells were cultured in DMEM as above and treated with 1% α5 composition for 48 h and 1 μM doxorubicin (DOX; Sigma-Aldrich, Milan, Italy) for 16 h (FIG. 7).
To quantify MCF7 cell growth, acid phosphatase assay was used as described [Yang T T et al. 1996 Anal Biochem. 241(1):103-8]. Briefly, MCF7 cells were placed in 96-well plates at 5,000 to 20,000 cells per well density and treated with 1% α5 (for 48 h) and 1 μM DOX (for 16 h). Culture medium was removed and each well washed once with phosphate-buffered saline (PBS, pH 7.2), and added with 100 μl buffer containing 0.1 M sodium acetate (pH 5.0), 0.1% Triton X-100, and 5 mM p-nitrophenyl phosphate (pNPP). Then, plates were placed in a 37° C. incubator for 2 h. The reaction was stopped with the addition of 10 μl 1 N NaOH, and color development was assessed at 405 nm. Non-enzymatic pNPP hydrolysis was measured in wells without cells.

COc1cccc2c1C(=O)c1c(O)c3c(c(O)c1C2=O)C[C@@](O)(C(=O)CO)C[C@@H]3O[C@H]1C[C@H](N)[C@H](O)[C@H](C)O1 [DOX, doxorubicin]
anti-proliferative effect of DOX together with the α5 composition: completely unaffected
